Experimental data from patent US9062066B2, “Anti-inflammatory compound having inhibitory activity against multiple tyrosine kinases and pharmaceutical composition containing same” (KOREA INSTITUTE OF SCIENCE AND TECHNOLOGY, priority 2010, dated 2015).
Like-named read-outs stand apart in the source and are kept apart here.

Key:
Hck tyrosine kinase = Hck tyrosine kinase (Homo sapiens (Human), UniProt P08631); experiment: in vitro Hck tyrosine kinase inhibition; type: biochemical; details: 1 uM compound; read-out: % inhibition against Hck
Chain of Hck tyrosine kinase (P08631 whole entry): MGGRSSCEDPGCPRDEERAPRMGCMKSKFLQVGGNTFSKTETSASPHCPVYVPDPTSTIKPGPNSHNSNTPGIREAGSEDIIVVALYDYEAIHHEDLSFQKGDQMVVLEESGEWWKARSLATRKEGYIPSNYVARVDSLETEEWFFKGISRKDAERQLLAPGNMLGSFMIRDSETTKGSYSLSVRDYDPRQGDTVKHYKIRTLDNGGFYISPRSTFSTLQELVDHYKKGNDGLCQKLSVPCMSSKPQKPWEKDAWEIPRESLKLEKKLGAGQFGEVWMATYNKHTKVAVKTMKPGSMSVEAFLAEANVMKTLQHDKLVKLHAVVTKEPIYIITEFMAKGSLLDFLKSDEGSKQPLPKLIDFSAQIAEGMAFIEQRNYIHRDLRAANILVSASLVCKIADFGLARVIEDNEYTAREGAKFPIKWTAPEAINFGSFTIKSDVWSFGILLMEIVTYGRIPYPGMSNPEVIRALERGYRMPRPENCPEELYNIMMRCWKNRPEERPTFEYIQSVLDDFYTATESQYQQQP

Fgr tyrosine kinase = Fgr tyrosine kinase (Homo sapiens (Human), UniProt P09769); experiment: in vitro Fgr tyrosine kinase inhibition; type: biochemical; details: 1 uM compound; read-out: % inhibition against Fgr
Chain of Fgr tyrosine kinase (P09769 whole entry): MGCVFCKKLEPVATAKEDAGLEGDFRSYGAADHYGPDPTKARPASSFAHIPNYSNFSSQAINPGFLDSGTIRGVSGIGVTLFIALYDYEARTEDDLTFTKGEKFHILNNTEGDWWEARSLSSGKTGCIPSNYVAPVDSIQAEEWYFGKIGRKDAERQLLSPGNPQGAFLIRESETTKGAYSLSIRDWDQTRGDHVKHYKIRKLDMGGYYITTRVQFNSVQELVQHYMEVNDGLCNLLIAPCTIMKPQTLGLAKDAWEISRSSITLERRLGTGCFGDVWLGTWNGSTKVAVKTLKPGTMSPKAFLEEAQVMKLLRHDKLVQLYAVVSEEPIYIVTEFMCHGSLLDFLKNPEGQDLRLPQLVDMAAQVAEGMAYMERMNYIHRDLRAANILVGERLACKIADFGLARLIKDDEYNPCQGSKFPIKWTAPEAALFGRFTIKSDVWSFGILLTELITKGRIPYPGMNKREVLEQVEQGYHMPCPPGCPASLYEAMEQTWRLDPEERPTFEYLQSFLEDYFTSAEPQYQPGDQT

c-Src tyrosine kinase = c-Src tyrosine kinase (Homo sapiens (Human), UniProt P12931); experiment: in vitro c-Src tyrosine kinase inhibition (32P-ATP, poly(D4Y)n substrate); type: biochemical; details: 1 uM compound; read-out: % inhibition against c-Src
Chain of c-Src tyrosine kinase (P12931 whole entry, looked up, the tested form may be a part): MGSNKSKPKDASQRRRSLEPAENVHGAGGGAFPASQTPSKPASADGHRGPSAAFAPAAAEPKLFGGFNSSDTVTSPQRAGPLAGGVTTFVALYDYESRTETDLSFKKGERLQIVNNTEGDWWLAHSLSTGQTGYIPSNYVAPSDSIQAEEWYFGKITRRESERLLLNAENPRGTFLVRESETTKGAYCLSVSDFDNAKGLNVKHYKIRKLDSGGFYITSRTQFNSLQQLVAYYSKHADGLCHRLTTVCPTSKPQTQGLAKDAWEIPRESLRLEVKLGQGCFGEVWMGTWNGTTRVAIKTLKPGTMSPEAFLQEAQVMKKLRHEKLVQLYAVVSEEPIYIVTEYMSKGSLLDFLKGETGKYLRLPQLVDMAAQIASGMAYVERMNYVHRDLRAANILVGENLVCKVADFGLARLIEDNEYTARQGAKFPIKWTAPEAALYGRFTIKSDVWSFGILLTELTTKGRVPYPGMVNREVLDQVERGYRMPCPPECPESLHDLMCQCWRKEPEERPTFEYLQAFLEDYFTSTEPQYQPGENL

DDR1 tyrosine kinase = DDR1 tyrosine kinase (Homo sapiens (Human), UniProt Q08345); experiment: in vitro DDR1 tyrosine kinase inhibition (GST-fused kinase domain); type: biochemical; details: 1 uM compound; read-out: % inhibition against DDR1
Chain of DDR1 tyrosine kinase (Q08345 610-905): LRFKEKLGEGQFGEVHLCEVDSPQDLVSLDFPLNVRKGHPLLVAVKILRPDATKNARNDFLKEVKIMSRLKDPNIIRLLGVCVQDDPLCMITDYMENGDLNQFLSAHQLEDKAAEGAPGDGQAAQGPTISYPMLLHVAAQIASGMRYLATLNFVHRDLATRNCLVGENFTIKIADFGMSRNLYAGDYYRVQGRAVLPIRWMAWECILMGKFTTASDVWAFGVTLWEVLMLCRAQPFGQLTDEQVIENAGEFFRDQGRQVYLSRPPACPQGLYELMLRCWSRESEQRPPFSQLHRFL

Lyn tyrosine kinase = Lyn tyrosine kinase (Homo sapiens (Human), UniProt P07948); experiment: in vitro Lyn tyrosine kinase inhibition; type: biochemical; details: 1 uM compound; read-out: % inhibition against Lyn
Chain of Lyn tyrosine kinase (P07948 whole entry, the tested form may be a part): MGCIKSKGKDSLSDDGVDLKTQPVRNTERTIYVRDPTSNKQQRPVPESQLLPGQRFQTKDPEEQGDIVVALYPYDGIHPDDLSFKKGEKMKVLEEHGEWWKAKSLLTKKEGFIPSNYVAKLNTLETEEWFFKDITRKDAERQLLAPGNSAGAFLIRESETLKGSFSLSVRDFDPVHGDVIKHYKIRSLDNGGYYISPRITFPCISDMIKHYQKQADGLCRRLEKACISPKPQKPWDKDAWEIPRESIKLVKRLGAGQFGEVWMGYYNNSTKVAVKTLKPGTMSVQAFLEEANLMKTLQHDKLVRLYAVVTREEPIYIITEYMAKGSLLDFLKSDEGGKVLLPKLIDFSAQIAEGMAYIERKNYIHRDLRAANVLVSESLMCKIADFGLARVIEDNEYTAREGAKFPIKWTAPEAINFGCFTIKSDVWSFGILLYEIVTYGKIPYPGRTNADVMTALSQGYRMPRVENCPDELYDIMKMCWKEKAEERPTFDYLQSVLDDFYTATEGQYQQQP

DDR2 tyrosine kinase = DDR2 tyrosine kinase (Homo sapiens (Human), UniProt Q16832); experiment: in vitro DDR2 tyrosine kinase inhibition (GST-fused kinase domain); type: biochemical; details: 1 uM compound; read-out: % inhibition against DDR2
Chain of DDR2 tyrosine kinase (Q16832 563-849): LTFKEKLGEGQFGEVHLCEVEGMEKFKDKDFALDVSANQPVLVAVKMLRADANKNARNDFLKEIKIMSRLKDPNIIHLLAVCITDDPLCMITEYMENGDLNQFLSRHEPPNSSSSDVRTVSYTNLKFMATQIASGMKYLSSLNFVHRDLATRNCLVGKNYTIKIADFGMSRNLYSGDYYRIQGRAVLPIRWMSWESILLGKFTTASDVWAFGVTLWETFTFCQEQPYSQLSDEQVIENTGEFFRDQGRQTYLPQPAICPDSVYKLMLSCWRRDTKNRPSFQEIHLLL

[1] = system: NO synthesis in J744A.1 macrophage; experiment: inhibition of nitric oxide (NO) synthesis in LPS-activated macrophages (Griess reagent); type: cell-based; details: read-out: Inhibition (%) of NO synthesis
[2] = system: TNF-α synthesis in J744A.1 macrophages; experiment: inhibition of TNF-α synthesis in LPS-activated macrophages (ELISA); type: cell-based; details: Macrophage; 10 μM compound, 100 ng/ml LPS, 6 hours; read-out: Inhibition (%) of TNF-α synthesis

## Oc1cccc(Nc2ncnc3cc(-c4cc(CN5CCCCC5)cs4)sc23)c1 [LCB 03-0103, 3-(6-(4-(piperidin-1-ylmethyl)thiophene-2-yl)thieno[3,2-d]pyrimidin-4-ylamino)phenol]
Hck tyrosine kinase
  inhibition at 1 µM: > 50%
Fgr tyrosine kinase
  inhibition at 1 µM: > 50%
c-Src tyrosine kinase
  inhibition at 1 µM: > 50%
DDR1 tyrosine kinase
  inhibition at 1 µM: > 70%
Lyn tyrosine kinase
  inhibition at 1 µM: > 50%
DDR2 tyrosine kinase
  inhibition at 1 µM: > 70%

## COc1cccc(Nc2ncnc3cc(-c4ccc(OCCc5ccccc5)cc4)sc23)c1 [LCB 03-0021, N-(3-methoxyphenyl)-6-(4-phenethoxyphenyl)thieno[3,2-d]pyrimidin-4-amine]
Hck tyrosine kinase
  inhibition at 1 µM: > 60%
Fgr tyrosine kinase
  inhibition at 1 µM: > 60%
c-Src tyrosine kinase
  inhibition at 1 µM: > 50%
DDR1 tyrosine kinase
  inhibition at 1 µM: > 30%
Lyn tyrosine kinase
  inhibition at 1 µM: > 60%
DDR2 tyrosine kinase
  inhibition at 1 µM: > 30%

## COc1ccc(-c2cc3ncnc(Nc4cccc(O)c4)c3s2)cc1 [LCB 03-0017, 3-[6-(4-Methoxy-phenyl)-thieno[3,2-d]pyrimidin-4-ylamino]-phenol]
Hck tyrosine kinase
  inhibition at 1 µM: > 60%
Fgr tyrosine kinase
  inhibition at 1 µM: > 60%
c-Src tyrosine kinase
  inhibition at 1 µM: > 60%
DDR1 tyrosine kinase
  inhibition at 1 µM: > 70%
Lyn tyrosine kinase
  inhibition at 1 µM: > 60%
[1]; 10 μM compound, LPS, 24 hours
  inhibition at 10 µM: 82%
DDR2 tyrosine kinase
  inhibition at 1 µM: > 70%

## CN1CCN(C(=O)Cc2ccc(-c3cc4ncnc(Nc5cccc(O)c5)c4s3)cc2)CC1 [LCB 03-0047, 2-(4-(4-(3-hydroxyphenylamino)thieno[3,2-d]pyrimidin-6-yl)phenyl)-1-(4-methylpiperazin-1-yl)ethanone]
Hck tyrosine kinase
  inhibition at 1 µM: > 30%
Fgr tyrosine kinase
  inhibition at 1 µM: > 30%
c-Src tyrosine kinase
  inhibition at 1 µM: > 30%
DDR1 tyrosine kinase
  inhibition at 1 µM: > 70%
Lyn tyrosine kinase
  inhibition at 1 µM: > 20%
[1]; 24 h
  inhibition at 10 µM: 56%
DDR2 tyrosine kinase
  inhibition at 1 µM: > 70%

## CCOCc1ccc(-c2cc3ncnc(Nc4cccc(O)c4)c3s2)cc1 [LCB 03-0073, 3-(6-(4-(ethoxymethyl)phenyl)thieno[3,2-d]pyrimidin-4-ylamino)phenol]
Hck tyrosine kinase
  inhibition at 1 µM: > 30%
Fgr tyrosine kinase
  inhibition at 1 µM: > 30%
c-Src tyrosine kinase
  inhibition at 1 µM: > 30%
DDR1 tyrosine kinase
  inhibition at 1 µM: > 80%
Lyn tyrosine kinase
  inhibition at 1 µM: > 30%
[1]; 10 μM compound, LPS, 24 hours
  inhibition at 10 µM: 85%
DDR2 tyrosine kinase
  inhibition at 1 µM: > 80%

## Oc1cccc(Nc2ncnc3cc(-c4ccc(Cl)cc4)sc23)c1 [LCB 03-0019, 3-(6-(4-chlorophenyl)thieno[3,2-d]pyrimidin-4-ylamino)phenol]
Hck tyrosine kinase
  inhibition at 1 µM: > 60%
Fgr tyrosine kinase
  inhibition at 1 µM: > 60%
c-Src tyrosine kinase
  inhibition at 1 µM: > 60%
DDR1 tyrosine kinase
  inhibition at 1 µM: > 70%
Lyn tyrosine kinase
  inhibition at 1 µM: > 60%
DDR2 tyrosine kinase
  inhibition at 1 µM: > 70%

## CN1CCN(C(=O)c2ccc(-c3cc4ncnc(Nc5cccc(O)c5)c4s3)cc2)CC1 [LCB 03-0052, (4-(4-(3-hydroxyphenylamino)thieno[3,2-d]pyrimidin-6-yl)phenyl)(4-methylpiperazin-1-yl)methanone]
Hck tyrosine kinase
  inhibition at 1 µM: > 60%
Fgr tyrosine kinase
  inhibition at 1 µM: > 50%
c-Src tyrosine kinase
  inhibition at 1 µM: > 60%
DDR1 tyrosine kinase
  inhibition at 1 µM: > 80%
Lyn tyrosine kinase
  inhibition at 1 µM: > 60%
DDR2 tyrosine kinase
  inhibition at 1 µM: > 80%

## Oc1cccc(Nc2ncnc3cc(-c4ccc(N5CCOCC5)cc4)sc23)c1 [LCB 03-0082, 3-(6-(4-morpholinophenyl)thieno[3,2-d]pyrimidin-4-ylamino)phenol]
Hck tyrosine kinase
  inhibition at 1 µM: > 70%
Fgr tyrosine kinase
  inhibition at 1 µM: > 70%
c-Src tyrosine kinase
  inhibition at 1 µM: > 70%
[2]
  inhibition at 10 µM: 77%
Lyn tyrosine kinase
  inhibition at 1 µM: > 70%
[1]; 10 μM compound, LPS, 24 hours
  inhibition at 10 µM: 90%

## Oc1cccc(Nc2ncnc3cc(-c4ccc(OCCN5CCOCC5)cc4)sc23)c1 [LCB 03-0020, 3-(6-(4-(2-morpholinoethoxy)phenyl)thieno[3,2-d]pyrimidin-4-ylamino)phenol]
Hck tyrosine kinase
  inhibition at 1 µM: > 70%
Fgr tyrosine kinase
  inhibition at 1 µM: > 70%
c-Src tyrosine kinase
  inhibition at 1 µM: > 70%
DDR1 tyrosine kinase
  inhibition at 1 µM: > 60%
Lyn tyrosine kinase
  inhibition at 1 µM: > 70%
DDR2 tyrosine kinase
  inhibition at 1 µM: > 60%

## CCN(CC)C(=O)Cc1ccc(-c2cc3ncnc(Nc4cccc(O)c4)c3s2)cc1 [LCB 03-0050, N,N-diethyl-2-(4-(4-(3-hydroxyphenylamino)thieno[3,2-d]pyrimidin-6-yl)phenyl)acetamide]
Hck tyrosine kinase
  inhibition at 1 µM: > 40%
Fgr tyrosine kinase
  inhibition at 1 µM: > 40%
c-Src tyrosine kinase
  inhibition at 1 µM: > 40%
DDR1 tyrosine kinase
  inhibition at 1 µM: > 80%
Lyn tyrosine kinase
  inhibition at 1 µM: > 40%
DDR2 tyrosine kinase
  inhibition at 1 µM: > 80%

## COc1cccc(Nc2ncnc3cc(-c4ccc(OCCc5ccccn5)cc4)sc23)c1 [LCB 03-0022, N-(3-methoxyphenyl)-6-(4-(2-(pyridin-2-yl)ethoxy)phenyl)thieno[3,2-d]pyrimidin-4-amine]
Hck tyrosine kinase
  inhibition at 1 µM: > 60%
Fgr tyrosine kinase
  inhibition at 1 µM: > 60%
c-Src tyrosine kinase
  inhibition at 1 µM: > 60%
DDR1 tyrosine kinase
  inhibition at 1 µM: > 10%
Lyn tyrosine kinase
  inhibition at 1 µM: > 60%
DDR2 tyrosine kinase
  inhibition at 1 µM: > 10%
